{"source": "patent US8329645B2", "about": "“Polymyxin derivatives and uses thereof” (priority 2008, dated 2012)", "key": {"E. coli IH3080": {"test_system": "E. coli IH3080", "assay": "E-test MIC with or without NAB7061 (4 μg/ml), Mueller-Hinton agar", "assay_type": "cell-based, Escherichia coli", "method": "(§1) MICs were determined by using E-strips (Biodisk Ltd., Solna, Sweden) according to the manufacturer's instructions.\n(§2) The strains originated from ATCC (11 strains), CCUG (11 strains), and NCTC (The National Collection of Type Cultures, Colindale, U.K.; 2 strains). Eight strains (the F-strains) were purchased from Mobidiag Ltd., Helsinki, Finland."}, "E. coli ATCC25922": {"test_system": "E. coli ATCC25922", "settings": "E. coli ATCC25922", "method": "as §1, §2"}, "K. pneumoniae ATCC13883": {"test_system": "K. pneumoniae ATCC13883", "settings": "K. pneumoniae ATCC13883", "method": "as §1, §2"}, "E. cloacae ATCC23355": {"test_system": "E. cloacae ATCC23355", "assay": "E-test MIC with or without NAB7061 (4 μg/ml), Mueller-Hinton agar", "assay_type": "cell-based, Enterobacter cloacae", "method": "as §1, §2"}, "Ac. baumannii ATCC19606": {"test_system": "Ac. baumannii ATCC19606", "assay": "E-test MIC with or without NAB7061 (4 μg/ml), Mueller-Hinton agar", "assay_type": "cell-based, Acinetobacter baumannii", "settings": "for MIC of carbapenem at NAB 7061 concn 0 μg/ml: A. baumannii ATCC19606, absence of NAB 7061; for MIC of antibiotic in the presence of 4 μg/ml of NAB 7061: Ac. baumannii ATCC19606", "method": "as §1, §2"}, "Ac. baumannii F263": {"test_system": "Ac. baumannii F263", "assay": "E-test MIC with or without NAB7061 (4 μg/ml), Mueller-Hinton agar", "assay_type": "cell-based, Acinetobacter baumannii", "settings": "for MIC of carbapenem at NAB 7061 concn 0 μg/ml: A. baumannii F263, absence of NAB 7061; for MIC of antibiotic in the presence of 4 μg/ml of NAB 7061: Ac. baumannii F263", "method": "as §1, §2"}, "Ac. baumannii F264": {"test_system": "Ac. baumannii F264", "assay": "E-test MIC with or without NAB7061 (4 μg/ml), Mueller-Hinton agar", "assay_type": "cell-based, Acinetobacter baumannii", "settings": "for MIC of carbapenem at NAB 7061 concn 0 μg/ml: A. baumannii F264, absence of NAB 7061; for MIC of antibiotic in the presence of 4 μg/ml of NAB 7061: Ac. baumannii F264", "method": "as §1, §2"}, "A. baumannii ATCC19606": {"test_system": "A. baumannii ATCC19606", "assay": "E-test MIC of antibiotics on Mueller Hinton agar containing increasing concentrations of NAB739", "assay_type": "cell-based, Acinetobacter baumannii"}, "A. baumannii F264": {"test_system": "A. baumannii F264", "assay": "E-test MIC of antibiotics on Mueller Hinton agar containing increasing concentrations of NAB739", "assay_type": "cell-based, Acinetobacter baumannii"}, "P. aeruginosa ATCC 27853": {"test_system": "P. aeruginosa ATCC 27853", "assay": "E-test MIC of antibiotics on Mueller Hinton agar containing increasing concentrations of NAB739", "assay_type": "cell-based, Pseudomonas aeruginosa"}}, "data": [{"smiles": "CC(=O)NC[C@H]1CN(c2ccc(N3CCOCC3)c(F)c2)C(=O)O1", "note": "[Linezolid]", "values": [{"measurement": "Sensitization factor to antibiotic (MIC without / with 4 μg/ml of NAB 7061)", "setting": "E. coli IH3080", "value": ">8"}, {"measurement": "Sensitization factor to antibiotic (MIC without / with 4 μg/ml of NAB 7061)", "setting": "E. coli ATCC25922", "value": ">11"}, {"measurement": "Sensitization factor to antibiotic (MIC without / with 4 μg/ml of NAB 7061)", "setting": "K. pneumoniae ATCC13883", "value": ">4"}, {"measurement": "Sensitization factor to antibiotic (MIC without / with 4 μg/ml of NAB 7061)", "setting": "E. cloacae ATCC23355", "value": ">8"}]}, {"smiles": "COc1c(N2C[C@@H]3CCCN[C@@H]3C2)c(F)cc2c(=O)c(C(=O)O)cn(C3CC3)c12", "note": "[Moxifloxacin]", "values": [{"measurement": "Sensitization factor to antibiotic (MIC without / with 4 μg/ml of NAB 7061)", "setting": "E. cloacae ATCC23355", "value": 4}]}, {"smiles": "COc1cc(Cc2cnc(N)nc2N)cc(OC)c1OC", "note": "[Trimetoprim]", "values": [{"measurement": "Sensitization factor to antibiotic (MIC without / with 4 μg/ml of NAB 7061)", "setting": "E. coli IH3080", "value": 3}, {"measurement": "Sensitization factor to antibiotic (MIC without / with 4 μg/ml of NAB 7061)", "setting": "E. coli ATCC25922", "value": 4}, {"measurement": "Sensitization factor to antibiotic (MIC without / with 4 μg/ml of NAB 7061)", "setting": "K. pneumoniae ATCC13883", "value": 2}, {"measurement": "Sensitization factor to antibiotic (MIC without / with 4 μg/ml of NAB 7061)", "setting": "E. cloacae ATCC23355", "value": 3}]}, {"smiles": "C[C@@H](O)[C@H]1C(=O)N2C(C(=O)O)=C(SCCN=CN)C[C@H]12", "note": "[imipenem]", "values": [{"measurement": "MIC of carbapenem at NAB 7061 concn 0 μg/ml", "setting": "Ac. baumannii ATCC19606", "value": 0.38, "unit": "µg/mL"}, {"measurement": "MIC of antibiotic in the presence of 4 μg/ml of NAB 7061", "setting": "Ac. baumannii ATCC19606", "value": 0.38, "unit": "µg/mL"}, {"measurement": "MIC of carbapenem at NAB 7061 concn 0 μg/ml", "setting": "Ac. baumannii F263", "value": ">32", "unit": "µg/mL"}, {"measurement": "MIC of antibiotic in the presence of 4 μg/ml of NAB 7061", "setting": "Ac. baumannii F263", "value": 8, "unit": "µg/mL"}, {"measurement": "MIC of carbapenem at NAB 7061 concn 0 μg/ml", "setting": "Ac. baumannii F264", "value": 24, "unit": "µg/mL"}, {"measurement": "MIC of antibiotic in the presence of 4 μg/ml of NAB 7061", "setting": "Ac. baumannii F264", "value": 6, "unit": "µg/mL"}]}, {"smiles": "C[C@@H](O)[C@H]1C(=O)N2C(C(=O)O)=C(S[C@@H]3CN[C@H](C(=O)N(C)C)C3)[C@H](C)[C@H]12", "note": "[meropenem]", "values": [{"measurement": "MIC of carbapenem at NAB 7061 concn 0 μg/ml", "setting": "Ac. baumannii ATCC19606", "value": 1.5, "unit": "µg/mL"}, {"measurement": "MIC of antibiotic in the presence of 4 μg/ml of NAB 7061", "setting": "Ac. baumannii ATCC19606", "value": 0.75, "unit": "µg/mL"}, {"measurement": "MIC of carbapenem at NAB 7061 concn 0 μg/ml", "setting": "Ac. baumannii F263", "value": ">32", "unit": "µg/mL"}, {"measurement": "MIC of antibiotic in the presence of 4 μg/ml of NAB 7061", "setting": "Ac. baumannii F263", "value": 6, "unit": "µg/mL"}, {"measurement": "MIC of carbapenem at NAB 7061 concn 0 μg/ml", "setting": "Ac. baumannii F264", "value": 32, "unit": "µg/mL"}, {"measurement": "MIC of antibiotic in the presence of 4 μg/ml of NAB 7061", "setting": "Ac. baumannii F264", "value": 4, "unit": "µg/mL"}, {"measurement": "MIC of antibiotic in the presence of NAB739", "setting": "A. baumannii ATCC19606; NAB 739 0 μg/ml", "value": 1, "unit": "µg/mL"}, {"measurement": "MIC of antibiotic in the presence of NAB739", "setting": "A. baumannii ATCC19606; NAB 739 0.5 μg/ml", "value": 0.25, "unit": "µg/mL"}, {"measurement": "MIC of antibiotic in the presence of NAB739", "setting": "A. baumannii ATCC19606; NAB 739 1 μg/ml", "value": 0.125, "unit": "µg/mL"}, {"measurement": "MIC of antibiotic in the presence of NAB739", "setting": "A. baumannii F264; NAB 739 0 μg/ml", "value": ">32", "unit": "µg/mL"}, {"measurement": "MIC of antibiotic in the presence of NAB739", "setting": "A. baumannii F264; NAB 739 0.5 μg/ml", "value": 1, "unit": "µg/mL"}, {"measurement": "MIC of antibiotic in the presence of NAB739", "setting": "A. baumannii F264; NAB 739 1 μg/ml", "value": 0.38, "unit": "µg/mL"}, {"measurement": "MIC of antibiotic in the presence of NAB739", "setting": "P. aeruginosa ATCC 27853; NAB 739 0 μg/ml", "value": 0.25, "unit": "µg/mL"}, {"measurement": "MIC of antibiotic in the presence of NAB739", "setting": "P. aeruginosa ATCC 27853; NAB 739 0.5 μg/ml", "value": 0.25, "unit": "µg/mL"}, {"measurement": "MIC of antibiotic in the presence of NAB739", "setting": "P. aeruginosa ATCC 27853; NAB 739 1 μg/ml", "value": 0.25, "unit": "µg/mL"}, {"measurement": "MIC of antibiotic in the presence of NAB739", "setting": "P. aeruginosa ATCC 27853; NAB 739 2 μg/ml", "value": 0.25, "unit": "µg/mL"}, {"measurement": "MIC of antibiotic in the presence of NAB739", "setting": "P. aeruginosa ATCC 27853; NAB 739 […]", "value": 0.25, "unit": "µg/mL"}]}]}
